Assay results reported in the supplement of paper PMC11208160.

Experiment: recombinant UMI read abundance after kanamycin selection (control-corrected) (log10(CPM+1)); higher = more efficient recombination; extreme values may be limits of the assay; sequences stand for … in AGTGCAGAGAAAATCGGCCAGTTTTCTCTGCCTGCAGTCCGCATGCCGTGGGACCCCTTGGGTTCTAACCTGTTGCCTAGATTTATGCAGCGGACTGCCTTTCTCCCAAAGTGATAAACCGG…AGGTTGGTTTCACT; site = the 11-nt donor
Outline: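 Pooled Escherichia coli screen of donor and donor-binding-loop pairs for the IS621 bridge recombinase. Each pair sits with a 12-nt UMI on a plasmid carrying a promoterless kanamycin gene. The library was co-electroporated with a target plasmid encoding a fixed target and T7-inducible recombinase, then plated with IPTG (0.07 mM) plus kanamycin, or unselected, each in two replicates. Recombinant UMIs were PCR-amplified across the donor–target junction and sequenced. Counts became CPM, averaged over replicates, scaled by control-derived factors and reported as log10(CPM+1).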
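Further: IS621 bridge recombinase in Escherichia coli cells against a fixed T5 target plasmid.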

Sequence | recombinant UMI read abundance (log10)
CGATCATCATGGACCGGTTTTCCCGGTAATCCGTATTTGCT (site TTATCATCTAG) | 1.88
CGATCATCATGGACCGGTTTTCCCGGTAATCCGTATTTGTA (site CGATCATCTAG) | 0
CGATCATCATGGACCGGTTTTCCCGGTAATCCGTATTTGTA (site CGATCATCTTA) | 2.57
CGATCATCATGGACCGGTTTTCCCGGTAATCCGTATTTGTT (site CGATCATCTAA) | 1.4
CGATCATCATGGACCGGTTTTCCCGGTAATCCGTATTTGTT (site CGATCATCTAC) | 0
CGATCATCATGGACCGGTTTTCCCGGTAATCCGTATTTGTT (site CGATCATCTAG) | 0
CGATCATCATGGACCGGTTTTCCCGGTAATCCGTATTTGTT (site CGATCATCTAT) | 0.00529
CGATCCACATGGACCGGTTTTCCCGGTAATCCGTATTTGCT (site CGATCATCTAG) | 0
CGATCCACATGGACCGGTTTTCCCGGTAATCCGTATTTGCT (site CGATCCACTAG) | 2.75
CGATCCACATGGACCGGTTTTCCCGGTAATCCGTATTTGTT (site CGATCAACTAA) | 0.00541
CGATCCACATGGACCGGTTTTCCCGGTAATCCGTATTTGTT (site CGATCCACTAA) | 2.11
CGATCCACATGGACCGGTTTTCCCGGTAATCCGTATTTGTT (site CGATCGACTAA) | 0.00891
CGATCCACATGGACCGGTTTTCCCGGTAATCCGTATTTGTT (site CGATCTACTAA) | 0.00733
CGATCGTCATGGACCGGTTTTCCCGGTAATCCGTATTTGCC (site CGATCATCTAG) | 0
CGATCGTCATGGACCGGTTTTCCCGGTAATCCGTATTTGCC (site CGATCGTCTGG) | 1.05
CGATCTTCATGGACCGGTTTTCCCGGTAATCCGTATTTGCT (site CGATCATCTAG) | 0
CGATCTTCATGGACCGGTTTTCCCGGTAATCCGTATTTGCT (site CGATCCTCTAG) | 0.00985
CGATCTTCATGGACCGGTTTTCCCGGTAATCCGTATTTGCT (site CGATCGTCTAG) | 0.00569
CGATCTTCATGGACCGGTTTTCCCGGTAATCCGTATTTGCT (site CGATCTTCTAG) | 0.601

Sequence | recombinant UMI read abundance (log10)
CGATGTGCATGGACCGGTTTTCCCGGTAATCCGTATTTGGC (site CGATGTGCTGC) | 3.02
CGATGTTCATGGACCGGTTTTCCCGGTAATCCGTATTTGTC (site CGATGTTCTGA) | 2.98
CGATTATCATGGACCGGTTTTCCCGGTAATCCGTATTTGCT (site CGATAATCTAG) | 0.446
CGATTATCATGGACCGGTTTTCCCGGTAATCCGTATTTGCT (site CGATCATCTAG) | 0
CGATTATCATGGACCGGTTTTCCCGGTAATCCGTATTTGCT (site CGATGATCTAG) | 0
CGATTATCATGGACCGGTTTTCCCGGTAATCCGTATTTGCT (site CGATTATCTAG) | 2.28
CGATTCCCATGGACCGGTTTTCCCGGTAATCCGTATTTGCT (site CAATTCCCTAG) | 0.32
CGATTCCCATGGACCGGTTTTCCCGGTAATCCGTATTTGCT (site CCATTCCCTAG) | 1.03
CGATTCCCATGGACCGGTTTTCCCGGTAATCCGTATTTGCT (site CGATTCCCTAG) | 0.704
CGATTCCCATGGACCGGTTTTCCCGGTAATCCGTATTTGCT (site CTATTCCCTAG) | 0
CGATTGGCATGGACCGGTTTTCCCGGTAATCCGTATTTGAT (site CGATTGGCTAT) | 2.26
CGCAACACATGGACCGGTTTTCCCGGTAATCCGTATTTGCG (site CGCAACACTCG) | 1.19
CGCAACCCATGGACCGGTTTTCCCGGTAATCCGTATTTGTT (site CGCAACCCTAA) | 0.717
CGCAACCCATGGACCGGTTTTCCCGGTAATCCGTATTTGTT (site CGGAATCCTAA) | 0
CGCAATCCATGGACCGGTTTTCCCGGTAATCCGTATTTGGT (site CGCAATCCTAC) | 0.135
CGCAATCCATGGACCGGTTTTCCCGGTAATCCGTATTTGGT (site CGGAATCCTAA) | 0
CGCACCGCATGGACCGGTTTTCCCGGTAATCCGTATTTGCA (site CGCACCGCTTG) | 2.35
CGCATTACATGGACCGGTTTTCCCGGTAATCCGTATTTGCA (site CGCATTACTTG) | 1.64
CGCATTTCATGGACCGGTTTTCCCGGTAATCCGTATTTGAG (site CGCATTTCTCT) | 0.426
